What was measured:
astrocyte [1] = assay: Phagocytic activity of astrocyte on FAM-labeled amyloid-beta oligomer after TMEM176B inhibitor treatment; assay type: cell-based; settings: inhibitor at 0, 3.703, 11.11, 33.33, 100 μM, FIG. 1
Protocol: In detail, BAYK8644 (by Merck) was used as a TMEM176B inhibitor, a method of confirming phagocytic activity of an astrocyte (by Abm) after treatment with the inhibitor was performed as follows. The astrocyte was cultured in a 96-well black cell culture plate (by SPL) using a PriGrow IV medium containing 10% FBS (by GIBCO), penicillin/streptomycin (by Thermo), human EGF 10 ng/mL (by Abm), and L-glutamine (by Abm), and incubation thereof was started at a density of 50,000 cells per well. Here, the TMEM176B inhibitor was treated at concentrations of 0 μM, 3.703 μM, 11.11 μM, 33.33 μM, and 100 μM, and the then the cells were stabilized by incubation at 37° C. in a 5% CO2 incubator for 18 to 24 hours. Fluorescent FAM-labeled amyloid-beta was dissolved in cold PBS (by Anaspec) at a concentration of 5 μM, blocked from light, and stored in a refrigerator at 4° C. for 24 hours to prepare amyloid-beta in oligomers. […] After 1 minute, trypan blue was removed by suction, and the phagocytized oligomeric amyloid-beta was measured at an excitation wavelength of 485 nm/emission wavelength of 535 nm using a microplate reader capable of measuring fluorescence. […] After the incubation was completed, a washing process was performed thereon once with PBS, and the stained nuclei were measured at an excitation wavelength of 360 nm/emission wavelength of 465 nm.

astrocyte [2] = assay: Phagocytic activity of astrocyte with overexpressed TMEM176B on FAM-labeled amyloid-beta oligomer; assay type: cell-based; settings: virus-inoculated astrocytes treated with inhibitor at 0, 10, 50 μM; FIG. 3
Protocol: A TMEM176B-infected astrocyte and a normal astrocyte were separately cultured into wells of a 96-well black cell culture plate (by SPL) at a density of 50,000 cells per well, the plate using PriGrow IV medium containing 10% FBS (by GIBCO), penicillin/streptomycin (by Thermo), 10 ng/mL of human EGF (by Abm), and L-glutamine (by Abm). Here, only the astrocytes inoculated with the TMEM176B-adeno-associated virus were treated with the TMEM176B inhibitor at concentrations of 0 μM, 10 μM, and 50 μM, and then stabilized by incubation at 37° C. in a 5% CO2 incubator for 18 to 24 hours. FAM-labeled amyloid-beta (by Anaspec) was dissolved in cold PBS at a concentration of 5 μM, blocked from light, and stored in a refrigerator at 4° C. for 24 hours to prepare an oligomer. […] After 1 minute, trypan blue was removed, and the phagocytized oligomeric amyloid-beta was measured at an excitation wavelength of 485 nm/emission wavelength of 535 nm using a microplate reader capable of measuring fluorescence. […] After the incubation was completed, a washing process was performed thereon once with PBS, and the stained nuclei were measured at an excitation wavelength of 360 nm/emission wavelength of 465 nm using a microplate reader capable of measuring fluorescence.

## COC(=O)C1=C(C)NC(C)=C([N+](=O)[O-])C1c1ccccc1C(F)(F)F (centres unmarked) [TMEM176B inhibitor, BAYK8644]
Astrocyte [1]
  phagocytosis function on the amyloid-beta oligomer: decreased the phagocytosis function
Astrocyte [2]
  phagocytosis of oligomeric amyloid-beta: decreased in a concentration-dependent manner
